In the NIST ThermoML archive (doi:10.1021/je400980w):
Numbers after ± are expanded uncertainties.

Settings: Liquid

| Compound | vapor or sublimation pressure (420.46 K) [kPa] | vapor or sublimation pressure (431.49 K) [kPa] | vapor or sublimation pressure (439.8 K) [kPa] | vapor or sublimation pressure (420.74 K) [kPa] | vapor or sublimation pressure (432.29 K) [kPa] | vapor or sublimation pressure (440.15 K) [kPa] |
| --- | --- | --- | --- | --- | --- | --- |
| CCC(O)CO (stereo unspecified) [1,2-butanediol] | 20 ± 2 | 30 ± 2 | 40 ± 2 | – | – | – |
| OCCO [1,2-ethanediol] | – | – | – | 20 ± 2 | 30 ± 2 | 40 ± 2 |
